Test results: publication PMC13600255 (Journal of the American Chemical Society, 2025)
“Also recorded” adds a separate entry of the source. Read-outs that look alike come from different tables or passages of the source.

Key:
NET = details: read-out: EC50, NET (release); synaptosomes; cited from earlier work
hVMAT2 = hVMAT2 (Homo sapiens, UniProt Q05940); assay: FFN206 fluorescent substrate uptake inhibition in hVMAT2-HEK cells; format: cell-based
hSERT = hSERT (Homo sapiens, UniProt P31645); format: cell-based; details: for IC50: read-out: IC50, hSERT (uptake inhibition, APP+), hSERT-HEK cells, fluorescent substrate APP+, n = 4
rat SERT (rSERT) = rat SERT (rSERT) (Rattus norvegicus, UniProt P31652); assay: [3H]5-HT uptake inhibition in rat brain synaptosomes; format: biochemical; details: for IC50: rat brain synaptosomes
rat VMAT2 (rVMAT2) = rat VMAT2 (rVMAT2) (Rattus norvegicus, UniProt Q01827); assay: [3H]5-HT uptake inhibition in rat brain synaptic vesicular fraction; format: biochemical
SERT [1] = molecular target: SERT (Rattus norvegicus, UniProt P31652); assay: [3H]5-HT release from rat brain synaptosomes via SERT; format: biochemical; details: for Emax: read-out: [3H]5-HT Release % Emax via SERT
VMAT2 = VMAT2 (Rattus norvegicus, UniProt Q01827); assay: [3H]5-HT release from rat brain synaptic vesicles via VMAT2; format: biochemical; details: for Concentration at which [3H]5-HT release exceeds Emax of 30%: rat brain synaptic vesicles; for [3H]5-HT Release % Emax via VMAT2: rat brain vesicular fraction, 5-HT control set as Emax = 100%; for Emax: read-out: [3H]5-HT Release % Emax via VMAT2
mice [2] = assay: Catalepsy bar test in mice; format: in vivo, mouse
mice [3] = assay: Open field locomotor activity test in mice; format: in vivo, mouse; details: s.c.; for Locomotor activity / sedation in open field test: dose-response
humans = details: therapeutic doses, treated for dyskinesias; cited from earlier work
SERT [4] = molecular target: SERT (Mus musculus, UniProt Q60857); assay: SERTlight two-photon imaging of SERT function in acute mouse brain slices; format: cell-based
mouse VMAT2 (mVMAT2) = mouse VMAT2 (mVMAT2) (Mus musculus, UniProt Q8BRU6); assay: FFN200 two-photon imaging of VMAT2 function in acute mouse brain slices; format: cell-based; details: 2 μM for 30 minutes, FFN200 10 μM, dorsal striatum
[5] = Pharmacokinetics in mice, estimated free drug concentration in brain; format: in vivo, mouse; details: mice, 50 mg/kg, s.c.
hOCT2 = molecular target: T1, hOCT2 (Homo sapiens, UniProt O15244); assay: ASP+ fluorescent substrate uptake inhibition at OCT2; format: cell-based
T1 sequence (O15244 1-555): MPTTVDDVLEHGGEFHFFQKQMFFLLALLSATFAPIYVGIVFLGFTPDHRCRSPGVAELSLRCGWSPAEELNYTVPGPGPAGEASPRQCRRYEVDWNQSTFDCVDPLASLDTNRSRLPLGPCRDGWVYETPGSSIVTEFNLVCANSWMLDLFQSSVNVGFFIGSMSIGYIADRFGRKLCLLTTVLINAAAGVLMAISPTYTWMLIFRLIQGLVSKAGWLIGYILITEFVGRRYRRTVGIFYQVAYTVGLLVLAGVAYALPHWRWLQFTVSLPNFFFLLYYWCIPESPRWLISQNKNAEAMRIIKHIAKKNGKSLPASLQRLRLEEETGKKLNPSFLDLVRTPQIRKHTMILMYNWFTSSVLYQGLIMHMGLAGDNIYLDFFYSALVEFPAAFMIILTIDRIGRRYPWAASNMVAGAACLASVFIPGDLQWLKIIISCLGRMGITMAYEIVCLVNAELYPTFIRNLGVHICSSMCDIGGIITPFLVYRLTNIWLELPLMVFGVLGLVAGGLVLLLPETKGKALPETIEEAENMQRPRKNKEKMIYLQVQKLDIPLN

[6] = read-out: IC50, hVMAT2 (uptake inhibition, FFN206), hVMAT2-HEK cells, fluorescent substrate FFN206, n = 4
[7] = read-out: Uptake Inhibition at SERT IC50, [3H]5-HT (rSERT)
[8] = read-out: [3H]5-HT Uptake Inhibition IC50 ± SD, SERT, n = 3
[9] = read-out: Uptake Inhibition at VMAT2 IC50, [3H]5-HT (rVMAT2), rat brain synaptic vesicles
[10] = rat brain synaptosomes, n = 3, active releaser: EC50 < 10 μM and Emax > 30%
[11] = read-out: [3H]5-HT Release EC50 ± SD via VMAT2

Chain of rat SERT (rSERT) (P31652 whole entry): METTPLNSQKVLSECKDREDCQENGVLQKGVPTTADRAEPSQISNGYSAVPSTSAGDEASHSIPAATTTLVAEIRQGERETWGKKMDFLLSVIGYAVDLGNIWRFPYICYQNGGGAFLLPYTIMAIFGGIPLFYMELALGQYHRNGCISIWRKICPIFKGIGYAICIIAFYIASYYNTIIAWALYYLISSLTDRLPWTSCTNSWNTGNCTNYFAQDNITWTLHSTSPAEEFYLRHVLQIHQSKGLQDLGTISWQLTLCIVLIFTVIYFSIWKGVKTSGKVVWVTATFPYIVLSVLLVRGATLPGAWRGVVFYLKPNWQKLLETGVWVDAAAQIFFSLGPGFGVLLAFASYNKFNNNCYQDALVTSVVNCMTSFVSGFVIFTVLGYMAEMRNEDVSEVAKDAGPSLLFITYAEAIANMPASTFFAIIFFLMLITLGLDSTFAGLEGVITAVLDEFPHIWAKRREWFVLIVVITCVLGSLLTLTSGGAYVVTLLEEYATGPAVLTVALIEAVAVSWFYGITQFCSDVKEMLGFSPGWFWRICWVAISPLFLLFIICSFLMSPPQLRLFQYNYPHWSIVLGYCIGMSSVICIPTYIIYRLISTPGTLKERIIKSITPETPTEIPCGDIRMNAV
Chain of SERT (Rattus norvegicus, UniProt P31652) (P31652 whole entry): as above
Chain of hSERT (P31645 whole entry): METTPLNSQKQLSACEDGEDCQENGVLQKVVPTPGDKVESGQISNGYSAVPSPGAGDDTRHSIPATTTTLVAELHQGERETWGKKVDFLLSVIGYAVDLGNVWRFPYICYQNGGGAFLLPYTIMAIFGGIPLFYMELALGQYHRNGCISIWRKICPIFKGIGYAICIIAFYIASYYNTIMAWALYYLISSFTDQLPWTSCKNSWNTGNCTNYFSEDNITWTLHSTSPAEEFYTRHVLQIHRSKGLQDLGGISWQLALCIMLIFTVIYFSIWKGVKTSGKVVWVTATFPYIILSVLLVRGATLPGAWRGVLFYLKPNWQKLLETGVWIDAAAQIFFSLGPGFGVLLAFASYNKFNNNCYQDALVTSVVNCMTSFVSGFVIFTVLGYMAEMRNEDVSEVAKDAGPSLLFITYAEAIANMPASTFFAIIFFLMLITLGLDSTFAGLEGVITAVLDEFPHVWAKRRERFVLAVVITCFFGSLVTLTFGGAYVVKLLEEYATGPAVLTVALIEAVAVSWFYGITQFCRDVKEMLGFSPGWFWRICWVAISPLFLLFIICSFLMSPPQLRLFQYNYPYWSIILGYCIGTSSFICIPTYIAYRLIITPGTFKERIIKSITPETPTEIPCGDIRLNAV
Chain of VMAT2 (Q01827 whole entry): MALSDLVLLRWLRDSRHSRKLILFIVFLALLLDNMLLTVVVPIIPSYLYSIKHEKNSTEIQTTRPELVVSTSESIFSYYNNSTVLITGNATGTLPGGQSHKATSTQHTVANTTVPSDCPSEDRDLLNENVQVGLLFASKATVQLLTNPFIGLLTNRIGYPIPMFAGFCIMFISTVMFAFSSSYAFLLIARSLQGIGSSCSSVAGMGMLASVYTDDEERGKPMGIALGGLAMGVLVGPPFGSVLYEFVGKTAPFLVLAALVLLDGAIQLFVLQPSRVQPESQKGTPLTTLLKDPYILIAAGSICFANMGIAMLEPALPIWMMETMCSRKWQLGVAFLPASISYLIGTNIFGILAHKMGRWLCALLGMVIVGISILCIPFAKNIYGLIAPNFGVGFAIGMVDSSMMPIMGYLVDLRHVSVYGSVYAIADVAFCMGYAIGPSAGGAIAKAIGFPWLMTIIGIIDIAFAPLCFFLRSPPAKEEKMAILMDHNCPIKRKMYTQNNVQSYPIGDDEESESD
Chain of rat VMAT2 (rVMAT2) (Q01827 whole entry): as above
Chain of mouse VMAT2 (mVMAT2) (Q8BRU6 whole entry): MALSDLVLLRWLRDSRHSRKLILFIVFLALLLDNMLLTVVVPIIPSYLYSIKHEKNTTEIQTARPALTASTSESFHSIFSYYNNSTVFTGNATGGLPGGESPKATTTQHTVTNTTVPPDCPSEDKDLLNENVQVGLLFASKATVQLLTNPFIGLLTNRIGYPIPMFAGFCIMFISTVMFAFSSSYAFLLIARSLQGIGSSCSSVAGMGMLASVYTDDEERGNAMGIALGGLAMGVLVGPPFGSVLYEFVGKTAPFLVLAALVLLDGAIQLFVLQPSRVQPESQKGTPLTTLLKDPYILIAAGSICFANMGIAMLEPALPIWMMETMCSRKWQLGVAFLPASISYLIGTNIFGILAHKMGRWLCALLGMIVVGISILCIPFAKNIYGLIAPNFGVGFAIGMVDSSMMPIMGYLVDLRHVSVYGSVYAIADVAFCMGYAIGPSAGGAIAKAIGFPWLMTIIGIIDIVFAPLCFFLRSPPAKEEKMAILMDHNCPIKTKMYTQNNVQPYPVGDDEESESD
Chain of SERT (Mus musculus, UniProt Q60857) (Q60857 whole entry): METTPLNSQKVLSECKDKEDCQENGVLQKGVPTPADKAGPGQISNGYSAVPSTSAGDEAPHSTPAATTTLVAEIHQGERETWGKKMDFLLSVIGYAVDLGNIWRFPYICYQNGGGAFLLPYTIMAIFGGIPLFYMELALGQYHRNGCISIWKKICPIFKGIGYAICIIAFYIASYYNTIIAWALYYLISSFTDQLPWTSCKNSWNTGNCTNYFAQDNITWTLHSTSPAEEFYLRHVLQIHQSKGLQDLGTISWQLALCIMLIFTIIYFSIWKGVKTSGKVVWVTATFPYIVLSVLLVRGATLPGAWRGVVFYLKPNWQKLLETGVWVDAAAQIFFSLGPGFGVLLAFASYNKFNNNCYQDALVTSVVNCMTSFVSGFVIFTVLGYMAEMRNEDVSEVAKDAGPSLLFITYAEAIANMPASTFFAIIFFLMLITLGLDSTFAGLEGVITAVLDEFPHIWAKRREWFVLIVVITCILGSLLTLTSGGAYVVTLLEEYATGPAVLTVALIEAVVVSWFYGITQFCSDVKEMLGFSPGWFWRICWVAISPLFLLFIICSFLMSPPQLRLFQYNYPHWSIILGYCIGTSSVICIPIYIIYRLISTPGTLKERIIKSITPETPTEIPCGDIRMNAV
Chain of hVMAT2 (Q05940 whole entry): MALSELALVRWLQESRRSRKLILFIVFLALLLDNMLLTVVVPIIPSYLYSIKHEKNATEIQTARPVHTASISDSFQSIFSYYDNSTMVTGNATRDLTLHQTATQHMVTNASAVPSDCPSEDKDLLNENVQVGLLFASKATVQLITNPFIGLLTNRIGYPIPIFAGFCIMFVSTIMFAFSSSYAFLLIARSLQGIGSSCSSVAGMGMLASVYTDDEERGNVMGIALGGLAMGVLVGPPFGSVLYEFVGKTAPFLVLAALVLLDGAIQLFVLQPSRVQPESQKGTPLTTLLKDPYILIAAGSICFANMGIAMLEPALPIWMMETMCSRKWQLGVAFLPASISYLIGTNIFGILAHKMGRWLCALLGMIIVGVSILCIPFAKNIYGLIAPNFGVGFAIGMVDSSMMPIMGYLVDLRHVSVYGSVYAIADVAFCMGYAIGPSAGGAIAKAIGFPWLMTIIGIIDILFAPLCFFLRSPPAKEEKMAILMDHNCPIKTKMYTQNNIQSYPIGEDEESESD

In the case of `CCOc1ccc2[nH]c3c(c2c1)CCN1CC2CC(CC)C1C3C2` (stereo not shown) [5-ethoxyibogamine], the “Selectivity hVMAT2 over hSERT” value (hVMAT2; ratio of IC50 values, cell-based fluorometry) is reported as “more than 100 fold”, the IC50 (hVMAT2; [6]) is reported as 80 nM and the IC50 (hSERT) is reported as 9030 nM.
Molecule N-methyl-5-cyano-ibogamine has an IC50 (hVMAT2; [6]) of 440 nM, an IC50 (hSERT) of 5 nM and an IC50 (rat SERT (rSERT); [7]) of 10 nM. The IC50 (rat SERT (rSERT); [8]) was 9.8 ± 0.8 nM, the IC50 (rat VMAT2 (rVMAT2); [9]) was 1320 nM and the “[3H]5-HT Release % Emax via SERT” value (SERT [1]; rat brain synaptosomes, n = 3) was < 30%. For the same molecule, the “[3H]5-HT Release EC50 ± SD via SERT” value (SERT [1]; [10]) was “inactive”, the “Concentration at which [3H]5-HT release exceeds Emax of 30%” value (“Concentration at which … of 30%” for short) (VMAT2) was > 10 µM and the “[3H]5-HT Release % Emax via VMAT2” value (VMAT2) was < 30%.
In the case of `COC(=O)[C@H]1[C@H]2C[C@@H]3c4[nH]c5cc(OC)ccc5c4CCN3C[C@H]2C[C@@H](OC(=O)c2cc(OC)c(OC)c(OC)c2)[C@@H]1OC` [reserpine, reference compound], the Emax (VMAT2) is reported as < 30%.
With `CCC1CC2CC3c4oc5ccc(O)cc5c4CCN(C2)C13` (stereo not shown) [oxa-noribogaine] the IC50 (hVMAT2; [6]) was 670 nM and the IC50 (hSERT) was 900 nM.
With `COc1cc2c(cc1OC)C1CC(=O)C(CC(C)C)CN1CC2` (stereo not shown) [tetrabenazine (TBZ), tetrabenazine, reference compound] the Emax (VMAT2) was < 30%, the “Catalepsy in bar test” value (mice [2]; mice, s.c., dose-response) was “catalepsy in the bar test in a dose-dependent manner; also recorded: catalepsy can be readily induced” and the “Locomotor activity / sedation in open field test” value (mice [3]) was “diminished locomotor activity; also recorded: sedation in the open field test”. The “Parkinsonism as an adverse effect, share of subjects” value (humans) was 15–24%.
For `CC[C@H]1C[C@@H]2C[C@H]3c4[nH]c5ccc(C#N)cc5c4CCN(C2)[C@@H]13` [5-cyano-ibogamine], the IC50 (hVMAT2; [6]) was 3340 nM, the IC50 (hSERT) was 26 nM and the IC50 (rat SERT (rSERT); [7]) was 65 nM. For the same molecule, the IC50 (rat SERT (rSERT); [8]) was 65.2 ± 5.4 nM, the IC50 (rat VMAT2 (rVMAT2); [9]) was 9620 nM and the “[3H]5-HT Release % Emax via SERT” value (SERT [1]; rat brain synaptosomes, n = 3) was < 30%. The “[3H]5-HT Release EC50 ± SD via SERT” value (SERT [1]; [10]) was “inactive”, the “Concentration at which … of 30%” value (VMAT2) was > 10 µM and the “[3H]5-HT Release % Emax via VMAT2” value (VMAT2) was < 30%. The “Effect on SERTlight labeling of 5-HT axons” value (SERT [4]; 0.2 μM (200 nM), dorsal striatum) was “Marked labeling inhibition; also recorded: marked suppression of SERTlight fluorescent labeling”, the “Effect on SERTlight labeling of 5-HT axons” value (SERT [4]; 2 μM for 30 minutes, SERTlight 10 μM, SNpr, DS, SSp2/3) was “ablated SERTlight probe uptake; also recorded: fully inhibited SERTlight label” and the “Effect on FFN200 uptake / punctate labeling” value (mouse VMAT2 (mVMAT2)) was “no inhibitory effects; also recorded: had no effect on labeling pattern”.
In the case of `NCCc1c[nH]c2ccc(O)cc12` [serotonin (5-HT), serotonin, reference compound], the EC50 (VMAT2) is reported as 585 ± 129 nM and the Emax (VMAT2) is reported as 113%.
With `CCC1CC2CC3c4c(c5cc(O)ccc5n4CC)CCN(C2)C13` (stereo not shown) [N-ethyl-noribogaine] the IC50 (hVMAT2; [6]) was 70 nM, the IC50 (hSERT) was 1860 nM and the “Potency in synaptosomes ([3H]5-HT, rSERT) relative to transfected cells (hSERT)” value (rat SERT (rSERT)) was “more than 20 fold”. The IC50 (rat SERT (rSERT); [7]) was 80 nM, the IC50 (rat SERT (rSERT); [8]) was 80.1 ± 7.2 nM and the IC50 (rat VMAT2 (rVMAT2); [9]) was 54 nM. The “[3H]5-HT Release % Emax via SERT” value (SERT [1]; rat brain synaptosomes, n = 3) was < 30%, the “[3H]5-HT Release EC50 ± SD via SERT” value (SERT [1]; [10]) was “inactive” and the “[3H]5-HT Release % Emax via VMAT2” value (VMAT2) was 31%. The EC50 (VMAT2; [11]) was 711 ± 254 nM, the “Catalepsy in bar test” value (mice [2]; mice, 50 mg/kg, s.c., 60-minute mark) was “catalepsy was induced” and the “Catalepsy in bar test” value (mice [2]; mice, s.c., dose-response) was “induces catalepsy”. The “Catalepsy in bar test” value (mice [2]; mouse, in vivo) was “lack of catalepsy; also recorded: did not induce catalepsy”, the “Locomotion in open field test” value (mice [3]; 30 mg/kg) was “completely suppressed locomotion” and the “Locomotor activity / sedation in open field test” value (mice [3]) was “suppresses locomotor activity”. For the same molecule, the “Cmax, estimated free drug in the brain” value [5] was 11 µM.
Molecule `CC[C@H]1C[C@@H]2C[C@H]3c4c(c5cc(OC)ccc5n4C)CCN(C2)[C@@H]13` [N-methyl-ibogaine] has an IC50 (hOCT2; read-out: IC50, hOCT2, ASP+ fluorescent substrate) of 2300 nM.
With `CC[C@H]1C[C@@H]2C[C@H]3c4[nH]c5ccccc5c4CCN(C2)[C@@H]13` [ibogamine] the IC50 (hVMAT2) was 3010 nM, the IC50 (hOCT2) was 2000 nM and the IC50 (rat SERT (rSERT); Uptake Inhibition at SERT IC50, [3H]5-HT (rSERT)) was 554 nM. The IC50 (rat SERT (rSERT); [3H]5-HT Uptake Inhibition IC50 ± SD, SERT, n = 3) was 554 ± 49 nM, the IC50 (rat VMAT2 (rVMAT2)) was > 10000 nM and the “[3H]5-HT Release EC50 ± SD via SERT” value (SERT [1]) was “inactive”. For the same molecule, the “[3H]5-HT release from preloaded synaptosomes (qualitative)” value (SERT [1]; rat brain synaptosomes) was “No [^3H]5-HT release was observed”, the Emax (SERT [1]) was < 30% and the “[3H]5-HT Release EC50 ± SD via VMAT2” value (VMAT2) was “inactive”. For the same molecule, the “Concentration at which … of 30%” value (VMAT2) was > 10 µM and the Emax (VMAT2) was < 30%.
With `COc1cc2c(cc1OC)[C@H]1C[C@@H](O)[C@H](CC(C)C)CN1CC2` [DTBZ, dihydrotetrabenazine, reference compound] the “Effect on FFN200 uptake / punctate labeling” value (mouse VMAT2 (mVMAT2)) was “attenuated; also recorded: inhibited the labeling pattern”.
`CCC1CC2CC3c4c(c5cc(O)ccc5n4C)CCN(C2)C13` (stereo not shown) [N-methyl-noribogaine] showed an IC50 (hVMAT2; [6]) of 170 nM, an IC50 (hSERT) of 59 nM and an IC50 (rat SERT (rSERT); [7]) of 14 nM. For the same molecule, the IC50 (rat SERT (rSERT); [8]) was 13.6 ± 1.2 nM, the IC50 (rat VMAT2 (rVMAT2); [9]) was 239 nM and the “[3H]5-HT Release % Emax via SERT” value (SERT [1]; rat brain synaptosomes, n = 3) was < 30%. For the same molecule, the “[3H]5-HT Release EC50 ± SD via SERT” value (SERT [1]; [10]) was “inactive”, the “[3H]5-HT Release % Emax via VMAT2” value (VMAT2) was 32% and the EC50 (VMAT2; [11]) was 219 ± 36 nM.
For `CN(C)CCCN1c2ccccc2CCc2ccccc21` [imipramine, reference compound], the “Selectivity for SERT over VMAT2” value (hSERT) was > 100 fold.
In the case of `CC(N)Cc1ccccc1` (stereo not shown) [amphetamine, reference compound], the “[3H]5-HT release from preloaded synaptosomes (qualitative)” value (SERT [1]; rat brain synaptosomes) is reported as “robust [^3H]5-HT release”, the Emax (SERT [1]) is reported as 91% and the Emax (VMAT2) is reported as 98%.
